Here are results for twelve molecules from patent US9458170B2, “Compound of camptothecin and preparation and use thereof” (YULIANG LI, priority 2012, dated 2016).

Holding throughout (assay type): cell-based
The subject of experiment [1] is human lung cancer A549 cells. Put plainly: Cell Titre Glo luminescent cell viability assay, A549. The settings on record: 72 h, incubated 3 days, 0.3 nM~10 μM, 0.1% DMSO. How it is done:
(§1) The human lung cancer A549 cells were cultured in DMEM medium (Gibco®) supplemented with 10% fetal bovine serum (Hyclone®), and human colon cancer SW620, HT-29 cells and human prostate cancer PC-3 cells were cultured in RPMI-1640 medium (Gibco®) supplemented with 10% fetal bovine serum (Hyclone®). The cells described above were cultured in 25 cm^2 or 75 cm^2 plastic cell culture flask (Corning®) filled with 95% air and 5% CO2 at 37° C., for 2˜3 passages per week. Cells were seeded in 96 well cell culture plates (Corning®) at a density of 1×10^3 cells/well (A549), 2×10^3 cells/well (SW620 and HT-29), 3×10^3 cells/well (PC-3), 195 μL/well, and cultured at 37° C., under 95% air and 5% CO2. After 24 h, compounds of this disclosure were added. All the compounds (dissolved in 100% DMSO) were serially diluted three times by 100% DMSO starting from 10 mM. 4 μL of the solution of each concentration was added to 96 μL serum free medium, respectively, and 5 μL diluted solution by medium was added to the culture plates seeded with the cancer cells. The final concentration of DMSO in culture medium was 0.1%, and the final concentration of the compound was 0.3 nM˜10 μM. The said cells were incubated at 37° C. for 3 days. 3 Days later, the viabilities of viable cells were measured by luminescent plate reader according to the reaction of ATP and luciferase (Cell Titre Glo® Luminescent Cell Viability Assay, Promega). This method can be used to evaluate effectiveness of the compounds according to their influences on the cell growth. The dose response curves were generated by the obtained data, and IC50 values were calculated with the program Prism.

Experiment [2] has as its system human colon cancer HT-29 cells. Put plainly: Cell Titre Glo luminescent cell viability assay, HT-29. The settings on record: 72 h, incubated 3 days, 0.3 nM~10 μM, 0.1% DMSO. How it is done: as §1
For experiment [3], the system named is human prostate cancer PC-3 cells. The experiment in a line: Cell Titre Glo luminescent cell viability assay, PC-3. To be noted: 72 h, incubated 3 days, 0.3 nM~10 μM, 0.1% DMSO. Here is the method:
as §1

Experiment [4] deals with human colon cancer SW620 cells. The experiment in a line: Cell Titre Glo luminescent cell viability assay, SW620. The settings on record: SW-620, 72 h, incubated 3 days, 0.3 nM~10 μM, 0.1% DMSO. How it is done:
as §1

Usually IC50 stands for the concentration at which inhibition is half-maximal. Read a low IC50 as higher potency. Regarding `CC[C@@]1(O)C(=O)OCc2c1cc1n(c2=O)Cc2cc3c(O)nccc3nc2-1` [Example 3, (S)-7-ethyl-1,7-dihydroxy-7H-pyrano[3′,4′:6,7]indolizino[1,2-b][1,6]naphthyridine-8,11(10H,13H)-dione], the concentration for half-maximal inhibition (IC50) in experiment [1] is under 500 nM; in experiment [2], under 1000 nM; in experiment [3] it was over 1000 nM; in experiment [4], under 500 nM.

On to `CC[C@@]1(O)C(=O)OCc2c1cc1n(c2=O)Cc2cc3cc(OC)c(F)cc3nc2-1` [Example 9, (S)-4-ethyl-8-fluoro-4-hydroxy-9-methoxy-1H-pyrano[3′,4′:6,7]indolizino[1,2-b]quinoline-3,14(4H,12H)-dione], for which the IC50 in experiment [1], in experiment [2], in experiment [3] and in experiment [4] was under 100 nM each time.

Regarding `CC[C@@]1(O)C(=O)OCc2c1cc1n(c2=O)Cc2cc3nc(OC)ccc3nc2-1` [Example 5, (S)-7-ethyl-7-hydroxy-2-methoxy-7H-pyrano[3′,4′:6,7]indolizino[1,2-b][1,5]naphthyridine-8,11(10H,13H)-dione], the IC50 in experiment [1] was under 100 nM; in experiment [2], under 500 nM; in experiment [3], under 500 nM; in experiment [4], under 100 nM.

Consider `CC[C@@]1(O)C(=O)OCc2c1cc1n(c2=O)Cc2cc3cc(OC)c(O)cc3nc2-1` [Example 7, (S)-4-ethyl-4,8-dihydroxy-9-methoxy-1H-pyrano[3′,4′:6,7]indolizino[1,2-b]quinoline-3,14(4H,12H)-dione], for which the IC50 in experiment [1], in experiment [2], in experiment [3] and in experiment [4] was under 100 nM throughout.

Regarding `CC[C@@]1(O)C(=O)OCc2c1cc1n(c2=O)Cc2c-1nc1cc(F)c(OC)cc1c2N` [Example 11, (S)-11-amino-4-ethyl-8-fluoro-4-hydroxy-9-methoxy-1H-pyrano[3′,4′:6,7]indolizino[1,2-b]quinoline-3,14(4H,12H)-dione], the IC50 in experiment [1] is under 100 nM; in experiment [2], under 500 nM; in experiment [3] it was under 100 nM; in experiment [4] it was under 100 nM.

Turning to `CC[C@@]1(O)C(=O)OCc2c1cc1n(c2=O)Cc2cc3c(OC)nccc3nc2-1` [Example 2, (S)-7-ethyl-7-hydroxy-1-methoxy-7H-pyrano[3′,4′:6,7]indolizino[1,2-b][1,6]naphthyridine-8,11(10H,13H)-dione], the IC50 in experiment [1] was over 1000 nM; in experiment [2], under 1000 nM; in experiment [3], over 1000 nM; in experiment [4], under 500 nM.

For `CC[C@@]1(O)C(=O)OCc2c1cc1n(c2=O)Cc2cc3cc(O)c(F)cc3nc2-1` [Example 8, (S)-4-ethyl-8-fluoro-4,9-dihydroxy-1H-pyrano[3′,4′:6,7]indolizino[1,2-b]quinoline-3,14(4H,12H)-dione], the IC50 in experiment [1], in experiment [2], in experiment [3] and in experiment [4] was under 100 nM in each case.

Turning to `CC[C@@]1(O)C(=O)OCc2c1cc1n(c2=O)Cc2cc3c(N(C)C)nccc3nc2-1` [Example 4, (S)-1-(dimethylamino)-7-ethyl-7-hydroxy-7H-pyrano[3′,4′:6,7]indolizino[1,2-b][1,6]naphthyridine-8,11(10H,13H)-dione], the IC50 in experiment [1] is under 100 nM; in experiment [2], over 1000 nM; in experiment [3], under 500 nM; in experiment [4], under 100 nM.

With `CC[C@@]1(O)C(=O)OCc2c1cc1n(c2=O)Cc2c-1nc1cc(F)c(OC)cc1c2C` [Example 12, (S)-4-ethyl-8-fluoro-4-hydroxy-9-methoxy-11-methyl-1H-pyrano[3′,4′:6,7]indolizino[1,2-b]quinoline-3,14(4H,12H)-dione], the IC50 in experiment [1], in experiment [2], in experiment [3] and in experiment [4] was under 100 nM throughout.

For `CC[C@@]1(O)C(=O)OCc2c1cc1n(c2=O)Cc2cc3ccc(OC)c(O)c3nc2-1` [Example 10, (S)-4-ethyl-4,7-dihydroxy-8-methoxy-1H-pyrano[3′,4′:6,7]indolizino[1,2-b]quinoline-3,14(4H,12H)-dione], the concentration for half-maximal inhibition (IC50) is under 500 nM in experiment [1], under 500 nM in experiment [2], under 500 nM in experiment [3] and under 100 nM in experiment [4].

On to `CC[C@@]1(O)C(=O)OCc2c1cc1n(c2=O)Cc2cc3cc(OC)ncc3nc2-1` [Example 1, (S)-4-ethyl-4-hydroxy-9-methoxy-1H-pyrano[3′,4′:6,7]indolizino[1,2-b][1,7]naphthyridine-3,14(4H,12H)-dione], for which the IC50 is under 100 nM in experiment [1], under 100 nM in experiment [2], under 500 nM in experiment [3] and under 100 nM in experiment [4].

With `CC[C@@]1(O)C(=O)OCc2c1cc1n(c2=O)Cc2cc3cc4c(cc3nc2-1)CCO4` [Example 6, (S)-7-ethyl-7-hydroxy-10,13-dihydro-2H-furo[2,3-g]pyrano[3′,4′:6,7]indolizino [1,2-b]quinoline-8,11(3H,7H)-dione], the half-maximal inhibitory concentration (IC50) in experiment [1] was over 1000 nM; in experiment [2], under 1000 nM; in experiment [3], over 1000 nM; in experiment [4] it was under 500 nM.
